The target in test [1] is Myosin light chain kinase (Homo sapiens) (UniProt Q32MK0). Nature of the test: Inhibition of human MYLK3 assessed as residual activity at 1 uM using KKRPQRRYSNVF as substrate by [gamma-33P]-ATP assay relative to control.
The target of test [2] is SNF-related serine/threonine-protein kinase (Homo sapiens) (UniProt Q9NRH2). Nature of the test: Inhibition of human SNRK assessed as residual activity at 1 uM using MBP as substrate by [gamma-33P]-ATP assay relative to control.
Test [3] addresses Wee1-like protein kinase (Homo sapiens) (UniProt P30291). Nature of the test: Inhibition of human WEE1 assessed as residual activity at 1 uM using MBP as substrate by [gamma-33P]-ATP assay relative to control.
Test [4] deals with MAP kinase-interacting serine/threonine-protein kinase 1 (Homo sapiens) (UniProt Q9BUB5). Nature of the test: Inhibition of human MNK1 assessed as residual activity at 1 uM using MBP as substrate by [gamma-33P]-ATP assay relative to control.
In test [5] the target is Serine/threonine-protein kinase N2 (Homo sapiens) (UniProt Q16513). Nature of the test: Inhibition of human PKN2 assessed as residual activity at 1 uM using KKLNRTLSVA as substrate by [gamma-33P]-ATP assay relative to control.
The target in test [6] is Calcium/calmodulin-dependent protein kinase type II subunit alpha (Homo sapiens) (UniProt Q9UQM7). Nature of the test: Inhibition of human CAMK2A assessed as residual activity at 1 uM using KKALRRQETVDAL as substrate by [gamma-33P]-ATP assay relative to control.
Test [7] has as its target Inhibitor of nuclear factor kappa-B kinase subunit alpha (Homo sapiens) (UniProt O15111). Nature of the test: Inhibition of human IKKalpha assessed as residual activity at 1 uM using KKKKERLLDDRHDSGLDSMKDEE as substrate by [gamma-33P]-ATP assay relative to control.
In test [8] the target is Cyclin-dependent kinase 2/cyclin E1 (Homo sapiens) (UniProt P24864+P24941). Nature of the test: Inhibition of human CDK2/cyclin-E assessed as residual activity at 1 uM using histone H1 as substrate by [gamma-33P]-ATP assay relative to control. The test is classed as protein-complex assay.
The target of test [9] is T1, Serine/threonine-protein kinase Chk1 (Homo sapiens) (UniProt O14757).
T1 sequence (whole entry): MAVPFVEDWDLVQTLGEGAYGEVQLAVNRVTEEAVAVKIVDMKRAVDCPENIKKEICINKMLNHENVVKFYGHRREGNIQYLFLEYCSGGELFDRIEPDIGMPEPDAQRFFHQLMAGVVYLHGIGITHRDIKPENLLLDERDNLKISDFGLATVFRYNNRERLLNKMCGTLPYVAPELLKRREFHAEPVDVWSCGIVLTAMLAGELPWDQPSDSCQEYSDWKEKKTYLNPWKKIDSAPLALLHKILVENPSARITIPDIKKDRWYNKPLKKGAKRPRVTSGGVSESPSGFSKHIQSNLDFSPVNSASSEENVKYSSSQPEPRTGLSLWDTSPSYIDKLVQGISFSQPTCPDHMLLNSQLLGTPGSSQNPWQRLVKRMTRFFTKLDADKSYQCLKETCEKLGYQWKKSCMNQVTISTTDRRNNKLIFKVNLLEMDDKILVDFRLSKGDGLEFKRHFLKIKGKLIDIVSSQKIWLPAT
Nature of the test: Inhibition of CHK1 phosphorylation at S296 residue in human HCT116 cells at 20 uM after 8 hrs by Western blot analysis. The class given is cell-based. Background: A western blot detects proteins with antibodies after separation by electrophoresis.

Test [10] has as its target Macrophage-stimulating protein receptor (Homo sapiens) (UniProt Q04912). Nature of the test: Inhibition of human RON assessed as residual activity at 1 uM using KKSRGDYMTMQIG as substrate by [gamma-33P]-ATP assay relative to control.
The target in test [11] is Serine/threonine-protein kinase 24 (Homo sapiens) (UniProt Q9Y6E0). Nature of the test: Inhibition of human MST3 assessed as residual activity at 1 uM using MBP as substrate by [gamma-33P]-ATP assay relative to control.
Chain of Serine/threonine-protein kinase 24 (Homo sapiens) (Q9Y6E0 whole entry, looked up): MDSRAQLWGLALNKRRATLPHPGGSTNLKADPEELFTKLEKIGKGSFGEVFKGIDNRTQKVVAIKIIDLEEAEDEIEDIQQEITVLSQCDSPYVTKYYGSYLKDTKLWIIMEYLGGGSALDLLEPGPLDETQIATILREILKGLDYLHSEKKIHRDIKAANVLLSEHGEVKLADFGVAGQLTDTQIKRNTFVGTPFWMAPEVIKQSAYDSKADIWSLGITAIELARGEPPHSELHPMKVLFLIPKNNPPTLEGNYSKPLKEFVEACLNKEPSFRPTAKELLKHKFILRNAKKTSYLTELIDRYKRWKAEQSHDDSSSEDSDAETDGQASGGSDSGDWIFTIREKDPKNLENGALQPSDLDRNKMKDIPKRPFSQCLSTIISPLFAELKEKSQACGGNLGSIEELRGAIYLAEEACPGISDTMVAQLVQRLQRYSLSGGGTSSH
The target of test [12] is Serine/threonine-protein kinase D3 (Homo sapiens) (UniProt O94806). Nature of the test: Inhibition of human PKCnu assessed as residual activity at 1 uM using KKLNRTLSVA as substrate by [gamma-33P]-ATP assay relative to control.
The target in test [13] is Serine/threonine-protein kinase PLK2 (Homo sapiens) (UniProt Q9NYY3). Nature of the test: Inhibition of human PLK2 assessed as residual activity at 1 uM using casein as substrate by [gamma-33P]-ATP assay relative to control.
In test [14] the target is Serine/threonine-protein kinase Nek7 (Homo sapiens, UniProt Q8TDX7). Nature of the test: Inhibition of human NEK7 assessed as residual activity at 1 uM using casein as substrate by [gamma-33P]-ATP assay relative to control.
Test [15] concerns the target Myosin light chain kinase, smooth muscle (Homo sapiens) (UniProt Q15746). Nature of the test: Inhibition of human MLCK assessed as residual activity at 1 uM using KKLNRTLSFAEPG as substrate by [gamma-33P]-ATP assay relative to control.
The target of test [16] is Inhibitor of nuclear factor kappa-B kinase subunit epsilon (Homo sapiens) (UniProt Q14164). Nature of the test: Inhibition of human IKKepsilon assessed as residual activity at 1 uM using casein as substrate by [gamma-33P]-ATP assay relative to control.
Test [17] concerns the target Serine/threonine-protein kinase MARK2 (Homo sapiens) (UniProt Q7KZI7). Nature of the test: Inhibition of human MARK2 assessed as residual activity at 1 uM using KKKVSRSGLYRSPSMPENLNRPR as substrate by [gamma-33P]-ATP assay relative to control.
For test [18], the target named is CDK7/Cyclin H/MNAT1 (Homo sapiens) (UniProt P51946+P50613+P51948). Nature of the test: Inhibition of human CDK7/cyclin-H/MNAT1 assessed as residual activity at 1 uM using MBP as substrate by [gamma-33P]-ATP assay relative to control. The test is classed as protein-complex assay.
Test [19] concerns the target Dual specificity protein kinase CLK2 (Homo sapiens) (UniProt P49760). Nature of the test: Inhibition of human CLK2 assessed as residual activity at 1 uM using MBP as substrate by [gamma-33P]-ATP assay relative to control.
Test [20] concerns the target Focal adhesion kinase 1 (Homo sapiens) (UniProt Q05397). Nature of the test: Inhibition of human FAK assessed as residual activity at 1 uM using poly[Glu:Tyr] (4:1) as substrate by [gamma-33P]-ATP assay relative to control.
Test [21] concerns the target Serine/threonine-protein kinase ULK2 (Homo sapiens) (UniProt Q8IYT8). Nature of the test: Inhibition of human ULK2 assessed as residual activity at 1 uM using MBP as substrate by [gamma-33P]-ATP assay relative to control.
Test [22] addresses Dual specificity mitogen-activated protein kinase kinase 2 (Homo sapiens) (UniProt P36507). Nature of the test: Inhibition of human MEK2 assessed as residual activity at 1 uM using ERK2 as substrate by [gamma-33P]-ATP assay relative to control.
The target in test [23] is Serine/threonine-protein kinase 16 (Homo sapiens) (UniProt O75716). Nature of the test: Inhibition of human STK16 assessed as residual activity at 1 uM using MBP as substrate by [gamma-33P]-ATP assay relative to control.
Chain of Serine/threonine-protein kinase 16 (Homo sapiens) (O75716 whole entry): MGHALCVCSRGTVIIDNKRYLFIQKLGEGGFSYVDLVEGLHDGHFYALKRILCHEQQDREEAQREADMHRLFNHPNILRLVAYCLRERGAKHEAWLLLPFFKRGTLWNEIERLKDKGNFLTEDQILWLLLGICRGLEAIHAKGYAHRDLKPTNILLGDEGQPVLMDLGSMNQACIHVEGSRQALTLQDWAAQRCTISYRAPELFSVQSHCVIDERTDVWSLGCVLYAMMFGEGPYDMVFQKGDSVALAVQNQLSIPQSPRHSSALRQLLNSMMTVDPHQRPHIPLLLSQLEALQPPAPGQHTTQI

The text below walks through data of ChEMBL document CHEMBL4325871 (Eur J Med Chem, 2019).

Activity calls are given as the source filed them. The calls are words filed in the database; no cut-off is given here.

Chain of Serine/threonine-protein kinase MARK2 (Homo sapiens) (Q7KZI7 whole entry): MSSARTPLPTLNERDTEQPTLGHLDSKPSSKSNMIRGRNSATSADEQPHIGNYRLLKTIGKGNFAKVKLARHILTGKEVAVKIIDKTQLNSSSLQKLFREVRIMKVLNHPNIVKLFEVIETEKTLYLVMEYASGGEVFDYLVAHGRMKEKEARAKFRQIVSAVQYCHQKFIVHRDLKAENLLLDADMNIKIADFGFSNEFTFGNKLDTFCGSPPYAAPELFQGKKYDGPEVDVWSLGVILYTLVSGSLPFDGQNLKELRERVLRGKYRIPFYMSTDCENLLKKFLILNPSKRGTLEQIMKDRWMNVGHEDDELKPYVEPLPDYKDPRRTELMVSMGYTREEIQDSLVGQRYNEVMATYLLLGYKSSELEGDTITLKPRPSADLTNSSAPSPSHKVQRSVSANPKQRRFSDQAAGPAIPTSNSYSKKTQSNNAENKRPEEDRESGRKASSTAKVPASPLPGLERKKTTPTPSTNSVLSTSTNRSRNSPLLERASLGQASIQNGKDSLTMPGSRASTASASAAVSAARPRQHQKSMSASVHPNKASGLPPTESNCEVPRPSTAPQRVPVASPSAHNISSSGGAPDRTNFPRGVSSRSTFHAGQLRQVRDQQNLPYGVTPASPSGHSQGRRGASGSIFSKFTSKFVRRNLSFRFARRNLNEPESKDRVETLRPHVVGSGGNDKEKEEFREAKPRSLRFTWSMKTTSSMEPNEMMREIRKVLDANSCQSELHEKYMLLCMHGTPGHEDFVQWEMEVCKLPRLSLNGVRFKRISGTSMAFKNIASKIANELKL
Chain of Dual specificity mitogen-activated protein kinase kinase 2 (Homo sapiens) (P36507 whole entry): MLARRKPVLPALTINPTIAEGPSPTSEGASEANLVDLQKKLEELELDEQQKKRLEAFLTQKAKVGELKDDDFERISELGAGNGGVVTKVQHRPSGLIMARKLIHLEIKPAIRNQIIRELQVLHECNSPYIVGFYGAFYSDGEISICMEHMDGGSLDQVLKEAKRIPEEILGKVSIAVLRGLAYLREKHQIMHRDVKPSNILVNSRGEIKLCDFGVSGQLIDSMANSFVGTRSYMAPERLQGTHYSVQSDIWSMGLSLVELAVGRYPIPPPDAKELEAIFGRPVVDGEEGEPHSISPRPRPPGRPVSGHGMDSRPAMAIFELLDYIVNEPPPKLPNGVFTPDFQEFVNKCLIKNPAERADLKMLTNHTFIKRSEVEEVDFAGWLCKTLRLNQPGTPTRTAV
Chain of Serine/threonine-protein kinase ULK2 (Homo sapiens) (Q8IYT8 whole entry): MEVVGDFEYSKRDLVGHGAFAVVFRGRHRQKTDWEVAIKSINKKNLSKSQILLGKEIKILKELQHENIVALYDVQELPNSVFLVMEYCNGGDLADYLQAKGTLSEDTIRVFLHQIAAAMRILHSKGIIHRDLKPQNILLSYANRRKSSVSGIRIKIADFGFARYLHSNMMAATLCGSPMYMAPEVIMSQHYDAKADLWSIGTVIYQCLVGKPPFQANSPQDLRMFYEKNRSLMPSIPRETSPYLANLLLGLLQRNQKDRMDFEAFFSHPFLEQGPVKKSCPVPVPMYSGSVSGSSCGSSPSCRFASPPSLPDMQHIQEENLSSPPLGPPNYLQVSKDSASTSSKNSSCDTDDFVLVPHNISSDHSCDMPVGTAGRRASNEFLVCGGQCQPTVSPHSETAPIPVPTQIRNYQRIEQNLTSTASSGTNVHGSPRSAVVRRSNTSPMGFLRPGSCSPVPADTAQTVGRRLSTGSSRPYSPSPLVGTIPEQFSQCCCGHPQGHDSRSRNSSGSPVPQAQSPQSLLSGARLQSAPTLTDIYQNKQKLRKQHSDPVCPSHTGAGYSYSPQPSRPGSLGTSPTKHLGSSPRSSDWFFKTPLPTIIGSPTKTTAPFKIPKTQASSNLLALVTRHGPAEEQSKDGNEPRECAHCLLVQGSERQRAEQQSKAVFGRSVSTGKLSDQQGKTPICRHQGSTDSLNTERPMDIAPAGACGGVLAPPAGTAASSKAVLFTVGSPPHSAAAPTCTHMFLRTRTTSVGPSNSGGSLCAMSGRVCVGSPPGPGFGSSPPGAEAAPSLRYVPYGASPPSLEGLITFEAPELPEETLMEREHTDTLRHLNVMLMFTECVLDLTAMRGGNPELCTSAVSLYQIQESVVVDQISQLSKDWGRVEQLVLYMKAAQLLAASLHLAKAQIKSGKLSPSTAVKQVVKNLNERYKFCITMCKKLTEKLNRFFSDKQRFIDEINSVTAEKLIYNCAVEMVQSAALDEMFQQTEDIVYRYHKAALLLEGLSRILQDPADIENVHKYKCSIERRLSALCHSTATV
Chain of Myosin light chain kinase, smooth muscle (Homo sapiens) (Q15746 whole entry): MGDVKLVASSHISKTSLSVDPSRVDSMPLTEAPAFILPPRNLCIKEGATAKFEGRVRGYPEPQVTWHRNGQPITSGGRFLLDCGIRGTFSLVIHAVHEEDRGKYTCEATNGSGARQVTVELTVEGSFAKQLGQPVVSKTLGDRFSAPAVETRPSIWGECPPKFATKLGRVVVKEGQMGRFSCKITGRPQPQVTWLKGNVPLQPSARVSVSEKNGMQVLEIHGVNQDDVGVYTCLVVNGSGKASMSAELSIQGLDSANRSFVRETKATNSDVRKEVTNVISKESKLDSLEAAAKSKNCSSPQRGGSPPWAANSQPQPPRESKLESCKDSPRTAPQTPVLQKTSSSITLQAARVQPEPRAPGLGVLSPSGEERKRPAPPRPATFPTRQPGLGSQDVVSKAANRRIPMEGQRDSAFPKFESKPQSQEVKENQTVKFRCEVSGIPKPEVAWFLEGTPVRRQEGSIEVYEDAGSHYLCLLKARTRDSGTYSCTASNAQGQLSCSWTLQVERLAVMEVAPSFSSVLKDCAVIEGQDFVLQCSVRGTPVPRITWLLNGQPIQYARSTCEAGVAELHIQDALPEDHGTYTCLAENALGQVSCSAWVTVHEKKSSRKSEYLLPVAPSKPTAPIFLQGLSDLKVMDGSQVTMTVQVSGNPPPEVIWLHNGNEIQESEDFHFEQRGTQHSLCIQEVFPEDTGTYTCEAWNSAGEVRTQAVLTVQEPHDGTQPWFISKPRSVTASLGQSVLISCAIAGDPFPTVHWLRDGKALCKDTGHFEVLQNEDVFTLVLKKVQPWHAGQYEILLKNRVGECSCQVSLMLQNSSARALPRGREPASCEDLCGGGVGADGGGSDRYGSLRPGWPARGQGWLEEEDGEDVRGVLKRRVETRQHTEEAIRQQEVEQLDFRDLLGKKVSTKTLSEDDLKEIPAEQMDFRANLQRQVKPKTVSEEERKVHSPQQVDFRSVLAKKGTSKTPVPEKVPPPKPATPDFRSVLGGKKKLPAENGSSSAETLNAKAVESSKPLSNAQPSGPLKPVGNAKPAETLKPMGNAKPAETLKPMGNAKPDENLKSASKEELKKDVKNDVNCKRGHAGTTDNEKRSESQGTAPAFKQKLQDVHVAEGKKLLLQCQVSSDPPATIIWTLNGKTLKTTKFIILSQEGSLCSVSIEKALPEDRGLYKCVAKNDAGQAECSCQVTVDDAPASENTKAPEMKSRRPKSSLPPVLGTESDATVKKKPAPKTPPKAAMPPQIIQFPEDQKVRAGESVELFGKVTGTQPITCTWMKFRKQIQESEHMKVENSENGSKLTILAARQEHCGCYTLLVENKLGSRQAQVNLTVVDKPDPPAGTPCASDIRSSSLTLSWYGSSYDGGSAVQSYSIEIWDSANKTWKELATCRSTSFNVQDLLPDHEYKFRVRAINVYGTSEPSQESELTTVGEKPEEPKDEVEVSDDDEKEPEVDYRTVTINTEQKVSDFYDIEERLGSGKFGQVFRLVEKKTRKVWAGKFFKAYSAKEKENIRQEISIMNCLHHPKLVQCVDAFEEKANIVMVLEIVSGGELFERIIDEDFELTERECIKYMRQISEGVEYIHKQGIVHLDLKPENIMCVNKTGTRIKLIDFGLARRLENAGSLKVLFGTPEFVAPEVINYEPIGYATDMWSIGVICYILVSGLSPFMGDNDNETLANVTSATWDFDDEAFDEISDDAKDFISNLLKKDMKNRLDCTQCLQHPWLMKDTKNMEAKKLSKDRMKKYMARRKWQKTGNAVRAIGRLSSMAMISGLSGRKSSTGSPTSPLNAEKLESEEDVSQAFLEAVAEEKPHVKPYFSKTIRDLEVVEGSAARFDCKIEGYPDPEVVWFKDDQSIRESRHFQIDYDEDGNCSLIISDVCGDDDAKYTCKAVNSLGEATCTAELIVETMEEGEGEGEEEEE

For the compound `C(=C\c1ccccc1)/C[N+]12CN3CN(CN(C3)C1)C2`, the Activity in test [1] was in the range of 92 to 96.4%; in test [2] it was 79.8 to 81%; in [3], 112 to 120%; in test [4] it was 96.3 to 99.7%; in test [5], 95.9 to 108%; in [6], 93.1 to 94.1%. The Activity fell in the range of 94 to 95.2% in test [7], 96.3 to 96.9% in [8], 93.3 to 94.8% in test [10] and 107 to 112% in test [11]. Moreover, the inhibition entry in test [9] was “inactive”.
For the compound `ClC/C=C/C[N+]12CN3CN(CN(C3)C1)C2`, the Activity in test [12] was 93.2 to 96.7%; in [13], 96.6 to 96.8%; in [14], 94.2 to 95.6%; in [15], 90.5 to 94.9%; in [16], 111 to 113%; in [17], 94.5%. For the same compound, the Activity in test [18] fell in the range of 97.4 to 97.9%; in test [19], 93.9 to 94.5%; in [20], 92.5 to 96%; in test [21] it was 93.7 to 95.4%; in test [22], 85.2 to 94.1%; in [23], 93.1 to 95.2%.
